Results from US20140348865A1, “[…] ON AN HIV-1 V1V2 SITE-OF-VULNERABILITY” (The United States of America, as represented by the …, priority 2011, published 2014).

Legend:
PG9 = experiment: ELISA of recombinant gp120 monomers with PG9; assay type: binding, human; conditions: gp120 monomer of the named strain
Fab PG9 = experiment: Saturation transfer difference NMR of glycan binding to PG9; set-up: species or system human; conditions: for interaction with PG9 by STD NMR: 1.5 mM glycan, 15 μM Fab PG9
Source text: FIGS. 6A-6B illustrate two glycans and a strand comprise a V1V2 site-of-vulnerability. Glycan, electrostatic, and sequence-independent interactions allow PG9 to recognize a glycopeptide site on V1V2. A, Site characteristics in CAP45 strain of HIV-1. Glycans 160 and 156 (173 with ZM109) are highlighted in light grey, and strands B and C are highlighted in dark grey, with the rest of V1V2 in semi-transparent white. The interactive surface of V1V2 with PG9 is shown, colored according the local electrostatic potential as in FIG. 5B. The contribution of each structural element to that surface is provided as a percentage of the total. […] C, Langmuir binding curve used to obtain the KD a function of glycan concentration (A signals correspond to N-acetyl protons, which are shown in the boxed area of the upper panel). D, Stacked STD NMR spectra as a function of Man5GlcNAc2-Asn concentration.
FIG. 25 illustrates binding of GlcNAc2 to PG9 by NMR. STD (lower trace) and reference (upper trace) NMR spectra of 1.5 mM GlcNAc2 in the presence of 15 μM Fab PG9.
FIG. 26 illustrates binding of mannopentaose to PG9 by NMR. STD (lower trace) and reference (upper trace) NMR spectra of 1.5 mM mannopentaose (structure shown above) in the presence of 15 μM Fab PG9.
All NMR experiments were carried out at 298 K on Bruker avance 600 or avance 500 instruments equipped with a triple resonance cryo-probe incorporating gradients in z-axis. 1D STD spectra were acquired by selectively irradiating at −1 ppm and +40 ppm as on- and off-resonance frequencies, respectively, using a train of 50 ms Gaussian-shaped radio frequency pulses separated by 1 ms delays and an optimized power level of 57 db. During NMR experiments water suppression was achieved by binomial 3-9-19 pulse sequence and protein resonances were suppressed by applying 10 ms T1ρ filter. Samples were prepared in 20 mM sodium phosphate buffer containing 50 mM sodium chloride at pH 6.8. The NMR data were processed and analyzed by using TOPSPIN 2.1. […]

“TRJO: gp120 monomer of HIV-1 Clade B strain TRJO, SEQ ID NO: 7” was tested, and the “PG9 recognition in the gp120 monomer context” value (from here on “PG9 recognition”) (PG9) was “retained PG9 recognition”.

`CC(=O)N[C@@H]1[C@@H](O)[C@H](O[C@@H]2O[C@H](CO)[C@@H](O[C@@H]3O[C@H](CO[C@H]4O[C@H](CO[C@H]5O[C@H](CO)[C@@H](O)[C@H](O)[C@@H]5O)[C@@H](O)[C@H](O[C@H]5O[C@H](CO)[C@@H](O)[C@H](O)[C@@H]5O)[C@@H]4O)[C@@H](O)[C@H](O[C@H]4O[C@H](CO)[C@@H](O)[C@H](O)[C@@H]4O)[C@@H]3O)[C@H](O)[C@H]2NC(C)=O)[C@@H](CO)O[C@H]1NC(=O)C[C@H](N)C(=O)O` [Asn-(N-actylglucosamine)2(mannose)5] was tested, and the Kd (Fab PG9; titration series, Langmuir binding curve, read-out: affinity for PG9) was 1600 ± 900 µM.

With “CAP45: gp120 monomer of HIV-1 Clade C strain CAP45, SEQ ID NO: 3” the “PG9 recognition” value (PG9) was “retained PG9 recognition”.

In the case of `CC(=O)N[C@H]1[C@H](O[C@H]2[C@H](O)[C@@H](NC(C)=O)C(O)O[C@@H]2CO)O[C@H](CO)[C@@H](O)[C@@H]1O` (some centres unmarked) [(N-acetylglucosamine)2], the “interaction with PG9 by STD NMR” value (Fab PG9) is reported as “not observed”.

For “ZM109: gp120 monomer of HIV-1 Clade C strain ZM109, SEQ ID NO: 2”, the “PG9 recognition” value (PG9) was “retained PG9 recognition”.

For “16055: gp120 monomer of HIV-1 Clade C strain 16055, SEQ ID NO: 6 [compound 16055]”, the “PG9 recognition” value (PG9) was “retained PG9 recognition”.

`CC(=O)N[C@H]1[C@H](O[C@H]2[C@H](O)[C@@H](NC(C)=O)C(O)O[C@@H]2CO)O[C@H](CO)[C@@H](O[C@@H]2O[C@H](CO[C@H]3O[C@H](CO[C@H]4O[C@H](CO)[C@@H](O)[C@H](O)[C@@H]4O)[C@@H](O)[C@H](O[C@H]4O[C@H](CO)[C@@H](O)[C@H](O)[C@@H]4O)[C@@H]3O)[C@@H](O)[C@H](O[C@H]3O[C@H](CO)[C@@H](O)[C@H](O)[C@@H]3O)[C@@H]2O)[C@@H]1O` (some centres unmarked) [oligomannose-5] was tested, and the “interaction with PG9 by STD NMR” value (Fab PG9) was “weak interactions”.

With “ZM53: gp120 monomer of HIV-1 Clade C strain ZM53, SEQ ID NO: 4” the “PG9 recognition” value (PG9) was “retained PG9 recognition”.
